Data reported in patent US8012957B2, “Tetrahydro-1H-1,2,6-triaza-azulene cannabinoid modulators” (Janssen Pharmaceutica NV, priority 2006, dated 2011).

What was measured:
cannabinoid CB2 receptor = molecular target: T1, cannabinoid CB2 receptor (Homo sapiens, UniProt P34972); assay: Binding assay for CB2, [3H]-CP-55,940 displacement on membranes of transfected SK-N-MC cells; conditions: test concentration of 0.2 μM
T1 construct: expressed in transfected cells; host or cells: SK-N-MC cells, pcDNA3 CB-2 (human), semi-purified membrane pellet
T1 sequence (P34972 whole entry): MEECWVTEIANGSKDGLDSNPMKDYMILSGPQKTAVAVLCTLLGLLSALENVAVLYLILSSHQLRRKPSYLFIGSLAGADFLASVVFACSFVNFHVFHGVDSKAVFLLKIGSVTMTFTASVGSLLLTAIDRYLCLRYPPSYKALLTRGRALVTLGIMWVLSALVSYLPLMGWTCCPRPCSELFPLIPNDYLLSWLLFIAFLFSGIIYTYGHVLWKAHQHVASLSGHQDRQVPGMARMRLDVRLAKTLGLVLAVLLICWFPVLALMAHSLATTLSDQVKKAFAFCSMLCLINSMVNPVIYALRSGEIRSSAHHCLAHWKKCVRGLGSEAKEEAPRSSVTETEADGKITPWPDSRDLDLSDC
Description: (§1) Binding Assay for CB1 or CB2 Agonists or Inverse Agonists
(§2) The human CB1 and CB2 receptors were stably expressed in SK-N-MC cells transfected with pcDNA3 CB-1 (human) or pcDNA3 CB-2 (human). The cells were grown in T-180 cell culture flasks under standard cell culture conditions at 37° C. in a 5% CO2 atmosphere. The cells were harvested by trysinization and homogenized in a homogenization buffer (10 mM Tris, 0.2 mM MgCl2, 5 mM KCl, with protease inhibitors aprotinin, leupeptin, pepstatin A and bacitracin) and centrifuged (2000 g). The supernatant was then centrifuged in 2M sucrose (31,300 g) to produce a semi-purified membrane pellet. The pellet was resuspended in homogenization and stored at −80° C.
(§3) On the day of the assay, the pellet was thawed on ice and diluted in assay buffer (50 mM Tris-HCl, 5 mM MgCl2, 2.5 mM EDTA, 0.5 mg/mL fatty acid free bovine serum albumin, pH 7.5). The diluted membrane pellet was added with buffer, either a test compound or vehicle standard and a the radioligand [H]^3+-CP-55,940 (0.2 nM) to the wells of a 96-well polypropylene plate. Non-specific binding was measured in wells containing WIN 55,212 (10 uM). The plate was covered and incubated for 90 minutes at 30° C. The contents were then aspirated onto a Packard Unifilter GF/C filter bottom plate prewet with 0.5% polyethyleneimine. The wells of the polypropylene plate were rinsed and aspirated seven times with a 0.9% saline-0.5% Tween 20 solution. The Unifilter plate was dried, a scintillation cocktail was added to each well and the counts representing binding were quantitated in a TopCount scintillation counter.
(§4) For compounds tested, an IC50 binding value was obtained from percent inhibition studies in which various test concentrations were used. The binding value (in μM) was calculated by linear regression.
(§5) For those compounds without an IC50 binding value, the percent inhibition (%) was obtained at a test concentration of 0.2 μM.

cannabinoid CB1 receptor = molecular target: T2, cannabinoid CB1 receptor (Homo sapiens, UniProt P21554); assay: Binding assay for CB1, [3H]-CP-55,940 displacement on membranes of transfected SK-N-MC cells; conditions: for inhibition at 0.2 µM: test concentration of 0.2 μM, read-out: Cannabinoid CB 1 Receptor Binding Inhibition (%); for IC50: radioligand [3H]-CP-55,940 0.2 nM, calculated by linear regression
T2 construct: expressed in transfected cells; host or cells: SK-N-MC cells, pcDNA3 CB-1 (human), semi-purified membrane pellet
T2 sequence (P21554 whole entry): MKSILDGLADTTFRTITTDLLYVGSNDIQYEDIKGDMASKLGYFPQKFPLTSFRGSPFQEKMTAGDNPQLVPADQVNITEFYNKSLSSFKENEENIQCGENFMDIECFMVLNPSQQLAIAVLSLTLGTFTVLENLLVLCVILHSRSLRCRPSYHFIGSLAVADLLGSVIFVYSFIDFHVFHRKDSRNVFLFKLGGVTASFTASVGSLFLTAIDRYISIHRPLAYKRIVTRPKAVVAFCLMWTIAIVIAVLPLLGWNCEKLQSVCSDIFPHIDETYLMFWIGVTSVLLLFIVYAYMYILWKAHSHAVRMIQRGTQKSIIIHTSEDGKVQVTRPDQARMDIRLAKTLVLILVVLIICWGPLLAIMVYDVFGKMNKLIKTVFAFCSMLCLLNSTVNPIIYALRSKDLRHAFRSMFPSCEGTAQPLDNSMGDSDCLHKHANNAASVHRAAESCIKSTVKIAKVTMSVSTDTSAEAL
Description: as §1, §2, §3, §4, §5

Compound `CC(C)(C)OC(=O)N1CCc2c(C(=O)N3CCCCC3)nn(-c3ccc(Cl)cc3Cl)c2/C(=C/c2ccc(F)cc2)C1` [Cpd 1, (8E)-1-(2,4-dichloro-phenyl)-8-(4-fluoro-benzylidene)-3-(piperidine-1-carbonyl)-4,5,7,8-tetrahydro-1 H-1,2,6-triaza-azulene-6-carboxylic acid tert-butyl ester] has an inhibition at 0.2 µM (cannabinoid CB2 receptor) of 6% and an inhibition at 0.2 µM (cannabinoid CB1 receptor) of 27%.

With `CC(C)(C)OC(=O)N1CCc2c(C(=O)NN3CCCCC3)nn(-c3ccc(Cl)cc3Cl)c2/C(=C/c2ccc(F)cc2)C1` [Cpd 2, (8E)-1-(2,4-dichloro-phenyl)-8-(4-fluoro-benzylidene)-3-(piperidin-1-ylcarbamoyl)-4,5,7,8-tetrahydro-1H-1,2,6-triaza-azulene-6-carboxylic acid tert-butyl ester] the inhibition at 0.2 µM (cannabinoid CB2 receptor) was 15% and the inhibition at 0.2 µM (cannabinoid CB1 receptor) was 54%.

For `CC(NC(=O)c1nn(-c2ccc(Cl)cc2Cl)c2c1CCN(C(=O)OC(C)(C)C)C/C2=C\c1ccc(F)cc1)c1ccccc1` (stereo not drawn) [Cpd 3, (8E)-1-(2,4-dichloro-phenyl)-8-(4-fluoro-benzylidene)-3-(1-phenyl-ethylcarbamoyl)-4,5,7,8-tetrahydro-1 H-1,2,6-triaza-azulene-6-carboxylic acid tert-butyl ester], the inhibition at 0.2 µM (cannabinoid CB2 receptor) was 15% and the IC50 (cannabinoid CB1 receptor) was 61 nM.

Work on `CC(NC(=O)c1nn(-c2ccc(Cl)cc2Cl)c2c1CCN(C(=O)OC(C)(C)C)C/C2=C\c1ccc(F)cc1)c1ccccn1` (stereo not drawn) [Cpd 4, (8E)-1-(2,4-dichloro-phenyl)-8-(4-fluoro-benzylidene)-3-(1-pyridin-2-yl-ethylcarbamoyl)-4,5,7,8-tetrahydro-1 H-1,2,6-triaza-azulene-6-carboxylic acid tert-butyl ester] yielded an inhibition at 0.2 µM (cannabinoid CB2 receptor) of 14% and an IC50 (cannabinoid CB1 receptor) of 50 nM.

For `O=C(c1nn(-c2ccc(Cl)cc2Cl)c2c1CCNC/C2=C\c1ccc(F)cc1)N1CCCCC1` [Cpd 5, (8E)-[1-(2,4-dichloro-phenyl)-8-(4-fluoro-benzylidene)-1,4,5,6,7,8-hexahydro-1,2,6-triaza-azulen-3-yl]-piperidin-1-yl-methanone], the inhibition at 0.2 µM (cannabinoid CB2 receptor) was 10% and the inhibition at 0.2 µM (cannabinoid CB1 receptor) was 16%.

In the case of `COC(=O)N1CCc2c(C(=O)NN3CCCCC3)nn(-c3ccc(Cl)cc3Cl)c2/C(=C/c2ccc(F)cc2)C1` [Cpd 6, (8E)-1-(2,4-dichloro-phenyl)-8-(4-fluoro-benzylidene)-3-(piperidin-1-ylcarbamoyl)-4,5,7,8-tetrahydro-1H-1,2,6-triaza-azulene-6-carboxylic acid methyl ester], the inhibition at 0.2 µM (cannabinoid CB2 receptor) is reported as 17% and the inhibition at 0.2 µM (cannabinoid CB1 receptor) is reported as 39%.
